The source of these data is US20140142023A1, “Pharmaceutical Composition for Treating A Metabolic Syndrome” (SANOFI, priority 2011, published 2014).

Ends that are not written are not given here.

In one assay the test system is Type 2 diabetic patients. The note with it: doses elevating plasma concentrations to approximately 3-4 fold physiological postprandial levels (Nauck 1997); cited from earlier work.
Assay [1] has as its system db/db mice. Briefly: Fed blood glucose in db/db mice (age of 6 weeks). It is filed as in vivo. The note with it: fed conditions, up to 4 weeks, AVE0010 0.05, FGF-21 0.75 mg/kg/day s.c. or combined. The method, then: (§1) Female db/db mice (BKS.Cg-m+/+Leprdb/J, age of 6 weeks) were treated with vehicle (PBS), 0.05 mg·kg^−1·day^−1 AVE0010, 0.75 mg·kg^−1·day^−1 recombinant human FGF-21 (SEQ ID NO: 2) or a combined dose of FGF-21 (SEQ ID NO: 2) and AVE0010 (0.75+0.05 mg·kg^−1·day^−1) subcutaneously once daily. Mice were fed ad libitum. Before the first treatment, after one week and 4 weeks blood glucose and HbA1c were measured under fed conditions. After 21 days of treatment an oral glucose tolerance test (OGTT) was initiated. Fasted mice were orally challenged with 2 g·kg^−1 glucose solution and blood glucose was measured at indicated time points.

Assay [2] concerns db/db mice. Briefly: Oral glucose tolerance test (OGTT) in db/db mice after 21 days. It is filed as in vivo. The note with it: after 21 days of treatment, 2 g/kg oral glucose, vs vehicle treated obese control. As to the method: as §1

Take “GLP-1(7-36 amide): bioactive GLP-1, SEQ ID NO: 4 (HAEGTFTSDVSSYLEGQAAKEFIAWLVKGR-NH2)”: in the assay with Type 2 diabetic patients, the fasting hyperglycaemia entry is “fully normalizes”.
With “AVE0010: GLP-1R agonist, SEQ ID NO: 9; sequence identical to lixisenatide SEQ ID NO: 8 [reference compound]”, the blood glucose entry in the assay with db/db mice [1] is given as “inhibition of blood glucose increase”. Further, the “glucose tolerance (OGTT)” value with db/db mice [2] is listed as “small improvement”.
Take “GLP-1(7-27): bioactive GLP-1; probably GLP-1(7-37), SEQ ID NO: 3 (HAEGTFTSDVSSYLEGQAAKEFIAWLVKGRG; Fragment of human GLP-1 (7 to 37))”: the fasting hyperglycaemia result with Type 2 diabetic patients is recorded as “fully normalizes”.
